Target: hKIF18A (1-374) (Homo sapiens (Human), UniProt Q8NI77)
Experiment: Inhibition of KIF18A microtubule-dependent ATPase activity (ADP-Glo)
Details: KIF18A microtubule-dependent ATPase activity, biochemical assay

hKIF18A (1-374), sequence (Q8NI77 whole entry, looked up): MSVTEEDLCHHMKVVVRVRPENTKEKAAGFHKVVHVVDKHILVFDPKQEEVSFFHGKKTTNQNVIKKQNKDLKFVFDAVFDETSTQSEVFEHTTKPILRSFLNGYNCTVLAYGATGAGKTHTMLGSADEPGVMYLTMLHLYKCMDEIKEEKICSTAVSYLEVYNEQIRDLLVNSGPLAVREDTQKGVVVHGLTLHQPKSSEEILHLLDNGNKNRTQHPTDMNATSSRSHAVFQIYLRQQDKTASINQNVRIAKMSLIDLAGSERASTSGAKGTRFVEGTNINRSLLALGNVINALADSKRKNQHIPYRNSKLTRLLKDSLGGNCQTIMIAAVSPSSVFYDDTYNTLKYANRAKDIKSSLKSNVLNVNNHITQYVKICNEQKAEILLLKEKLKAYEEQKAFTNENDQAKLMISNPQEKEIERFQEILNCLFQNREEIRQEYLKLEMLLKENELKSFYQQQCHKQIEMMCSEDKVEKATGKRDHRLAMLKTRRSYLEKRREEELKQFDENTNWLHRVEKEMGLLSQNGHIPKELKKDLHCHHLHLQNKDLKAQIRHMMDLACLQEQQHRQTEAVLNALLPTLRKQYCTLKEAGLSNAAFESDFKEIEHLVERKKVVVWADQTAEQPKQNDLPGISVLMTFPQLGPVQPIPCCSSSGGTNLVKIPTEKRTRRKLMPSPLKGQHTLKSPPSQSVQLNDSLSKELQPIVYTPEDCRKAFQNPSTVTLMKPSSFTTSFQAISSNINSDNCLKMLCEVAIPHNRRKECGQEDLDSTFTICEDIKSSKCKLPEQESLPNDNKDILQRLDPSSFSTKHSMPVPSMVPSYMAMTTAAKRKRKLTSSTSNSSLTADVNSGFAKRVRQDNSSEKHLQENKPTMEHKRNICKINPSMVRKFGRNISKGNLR
hKIF18A (1-374), sequence (Q2XVP4 whole entry partner, looked up): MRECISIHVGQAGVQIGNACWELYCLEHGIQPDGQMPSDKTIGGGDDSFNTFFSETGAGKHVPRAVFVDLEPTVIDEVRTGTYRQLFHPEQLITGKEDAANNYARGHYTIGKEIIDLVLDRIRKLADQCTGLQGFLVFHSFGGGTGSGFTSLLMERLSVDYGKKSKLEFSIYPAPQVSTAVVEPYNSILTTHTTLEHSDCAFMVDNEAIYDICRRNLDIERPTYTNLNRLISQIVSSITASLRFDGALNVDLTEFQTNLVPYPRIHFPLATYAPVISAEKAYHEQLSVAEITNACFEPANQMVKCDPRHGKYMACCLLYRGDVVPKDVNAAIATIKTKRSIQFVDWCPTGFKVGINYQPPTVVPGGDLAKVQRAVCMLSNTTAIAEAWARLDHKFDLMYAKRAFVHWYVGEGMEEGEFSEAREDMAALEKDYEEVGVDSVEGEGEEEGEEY
hKIF18A (1-374), sequence (P02554 whole entry partner, looked up): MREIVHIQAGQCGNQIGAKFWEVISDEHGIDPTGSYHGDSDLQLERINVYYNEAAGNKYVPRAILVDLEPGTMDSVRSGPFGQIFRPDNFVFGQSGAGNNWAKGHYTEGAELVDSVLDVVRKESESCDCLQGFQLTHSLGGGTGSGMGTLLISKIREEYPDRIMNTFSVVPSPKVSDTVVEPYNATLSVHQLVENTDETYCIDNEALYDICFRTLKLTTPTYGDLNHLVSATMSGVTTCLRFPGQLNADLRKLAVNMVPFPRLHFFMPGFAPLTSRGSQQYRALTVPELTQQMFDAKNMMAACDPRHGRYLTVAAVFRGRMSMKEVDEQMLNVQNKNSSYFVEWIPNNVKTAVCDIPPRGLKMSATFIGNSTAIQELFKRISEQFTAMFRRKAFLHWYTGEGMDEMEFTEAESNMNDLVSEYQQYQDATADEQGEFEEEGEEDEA

SMILES: CS(=O)(=O)Nc1ccc2c(c1)C1(CCC3(CC3)CC1)CN2C(=O)c1cccc(S(=N)(=O)C2CCCC2)c1 (centres unmarked) [Compound 287, N-(1″-(3-(cyclopentanesulfonimidoyl)benzoyl)dispiro[cyclopropane-1,1′-cyclohexane-4′,3″-indolin]-5″- yl)methanesulfonamide]
- IC50: 0.017 µM

SMILES: CC(C)(C)NS(=O)(=O)c1cc(C(=O)N2CC3(CCCCC3)c3cc(NS(=O)(=O)CCO)ccc32)cs1 [Compound 289, N-(tert-butyl)-4-(5′-((2-hydroxyethyl)sulfonamido)spiro [cyclohexane-1,3′-indoline]-1′-carbonyl)thiophene-2-sulfonamide]
- IC50: 0.017 µM

SMILES: CS(=O)(=O)Nc1ccc2c(c1)C1(CCC3(CC3)CC1)CN2C(=O)c1csc(S(=O)(=O)NC2CCC2)c1 [Compound 291, N-cyclobutyl-4-(5″- (methylsulfonamido)dispiro[cyclopropane-1,1′-cyclohexane-4′,3″-indoline]-1″-carbonyl)thiophene-2-sulfonamide]
- IC50: 0.0058 µM

SMILES: CC(=O)NCCCS(=O)(=O)Nc1ccc2c(c1)C1(CCC3(CC3)CC1)CN2C(=O)c1cccc(S(=O)(=O)NC(C)(C)C)c1 [Compound 292, N-(3-(N-(1″-(3-(N-(tert-butyl)sulfamoyl)benzoyl)dispiro [cyclopropane-1,1′-cyclohexane-4′,3″- indolin]-5″- yl)sulfamoyl)propyl)acetamide]
- IC50: 0.022 µM

SMILES: CCS(=O)(=O)Nc1ccc2c(c1)C1(CCC3(CC3)CC1)CN2C(=O)c1cccc(S(=O)(=O)NC2CC(F)(F)C2)c1 [Compound 293, N-(3,3-difluorocyclobutyl)-3-(5″- (ethylsulfonamido)dispiro[cyclopropane-1,1′-cyclohexane-4′,3″-indoline]-1″- carbonyl)benzenesulfonamide]
- IC50: 0.017 µM

SMILES: CC1=CCC2(CC1)CN(C(=O)c1cccc(S(=O)(=O)NC(C)(C)C)c1)c1ccc(NS(C)(=O)=O)cc12 (centres unmarked) [Compound 295, N-(tert-butyl)-3-(4-methyl-5′-(methylsulfonamido)spiro[cyclohexane-1,3′-indolin]-3-en-1′-carbonyl)benzenesulfonamide]
- IC50: 0.038 µM

SMILES: CC(C)(C)NS(=O)(=O)c1ccc(C(=O)N2CC3(CCC4(CC4)CC3)c3cc(NS(C)(=O)=O)ccc32)o1 [Compound 299, N-(tert-butyl)-5-(5″- (methylsulfonamido)dispiro[cyclopropane-1,1′-cyclohexane-4′,3″-indoline]-1″-carbonyl)furan-2-sulfonamide]
- IC50: 0.014 µM

SMILES: COCCS(=O)(=O)Nc1ccc2c(c1)C1(CCC3(CC3)CC1)CN2C(=O)c1cccc(S(=O)(=O)NC(C)(C)C)c1 [Compound 300, N-(tert-butyl)-3-(5″-((2-methoxyethyl)sulfonamido)dispiro [cyclopropane-1,1′-cyclohexane-4′,3″- indoline]-1″- carbonyl)benzenesulfonamide]
- IC50: 0.031 µM

SMILES: CS(=O)(=O)Nc1ccc2c(c1)C1(CCC3(CC3)CC1)CN2C(=O)c1csc(C(O)C2CCCC2)c1 (centres unmarked) [Compound 301, N-(1″-(5-(cyclopentyl(hydroxy)methyl)thiophene-3-carbonyl)dispiro[cyclopropane-1,1′-cyclohexane-4′,3″-indolin]-5″-yl)methanesulfonamide]
- IC50: 0.021 µM

SMILES: COc1ccc(C(=O)N2CC3(CCC4(CC4)CC3)c3cc(NS(C)(=O)=O)ccc32)cc1S(=O)(=O)N1CC(F)(F)C1 [Compound 302, N-(1″-(3-((3,3-difluoroazetidin-1-yl)sulfonyl)-4-methoxybenzoyl)dispiro[cyclopropane-1,1′-cyclohexane-4′,3″-indolin]-5″- yl)methanesulfonamide]
- IC50: 0.019 µM

SMILES: CS(=O)(=O)Nc1ccc2c(c1)C1(CCC3(CC3)CC1)CN2C(=O)c1ccc(O)c(S(=O)(=O)N2CC(F)(F)C2)c1 [Compound 303, N-(1″-(3-((3,3-difluoroazetidin-1-yl)sulfonyl)-4-hydroxybenzoyl)dispiro[cyclopropane-1,1′-cyclohexane-4′,3″-indolin]-5″-yl)methanesulfonamide]
- IC50: 0.0082 µM

SMILES: CS(=O)(=O)Nc1ccc2c(c1)C1(CCC3(CC3)CC1)CN2C(=O)c1cccc(C(O)CC2CCC2)c1 (centres unmarked) [Compound 305, N-(1″-(3-(2-cyclobutyl-1-hydroxyethyl)benzoyl)dispiro [cyclopropane-1,1′-cyclohexane-4′,3″-indolin]-5″-yl)methanesulfonamide]
- IC50: 0.0089 µM

SMILES: CS(=O)(=O)Nc1ccc2c(c1)C1(CCC3(CC3)CC1)CN2C(=O)c1cccc(C(F)(F)C2CCCC2)c1 [Compound 306, N-(1″-(3-(cyclopentyldifluoromethyl)benzoyl)dispiro[cyclopropane-1,1′-cyclohexane-4′,3″-indolin]-5″- yl)methanesulfonamide]
- IC50: 0.033 µM

SMILES: COc1ccc(C(=O)N2CC3(CCC4(CC4)CC3)c3cc(NS(C)(=O)=O)ccc32)cc1S(=O)(=O)NC12CC(C1)C2 [Compound 311, N-(bicyclo[1.1.1]pentan-1-yl)-2-methoxy-5-(5″-(methylsulfonamido)dispiro[cyclopropane-1,1′-cyclohexane-4′,3″-indoline]-1″- carbonyl)benzenesulfonamide]
- IC50: 0.0052 µM

SMILES: CS(=O)(=O)Nc1ccc2c(c1)C1(CCC3(CC3)CC1)CN2C(=O)c1cccc(C(O)C2CCC2)c1 (centres unmarked) [Compound 313, N-(1″-(3-(cyclobutyl(hydroxy)methyl)benzoyl)dispiro[cyclopropane-1,1′-cyclohexane-4′,3″-indolin]-5″- yl)methanesulfonamide]
- IC50: 0.02 µM

SMILES: CS(=O)(=O)Nc1ccc2c(c1)C1(CCC3(CC3)CC1)CN2C(=O)c1cccc(C(O)CN2CC(F)(F)C2)c1 (centres unmarked) [Compound 314, N-(1″-(3-(2-(3,3-difluoroazetidin-1-yl)-1-hydroxyethyl)benzoyl)dispiro[cyclopropane-1,1′-cyclohexane-4′,3″-indolin]-5″-yl)methanesulfonamide]
- IC50: 0.028 µM

SMILES: CS(=O)(=O)Nc1ccc2c(c1)C1(CCC3(CC3)CC1)CN2C(=O)c1cccc(C(O)CN2CCC(F)(F)CC2)c1 (centres unmarked) [Compound 315, N-(1″-(3-(2-(4,4-difluoropiperidin-1-yl)-1-hydroxyethyl)benzoyl)dispiro[cyclopropane-1,1′-cyclohexane-4′,3″-indolin]-5″-yl)methanesulfonamide]
- IC50: 0.053 µM

SMILES: CS(=O)(=O)Nc1ccc2c(c1)C1(CCC3(CC3)CC1)CN2C(=O)c1ccnc(C(O)C2CCCC2)c1 (centres unmarked) [Compound 316, N-(1″-(2-(cyclopentyl(hydroxy)methyl)isonicotinoyl)dispiro[cyclopropane-1,1′-cyclohexane-4′,3″-indolin]-5″- yl)methanesulfonamide]
- IC50: 0.018 µM

SMILES: CS(=O)(=O)Nc1ccc2c(c1)C1(CCC3(CC3)CC1)CN2C(=O)c1cccc(C(O)C2CCCC2)n1 (centres unmarked) [Compound 317, N-(1″-(6-(cyclopentyl(hydroxy)methyl)picolinoyl)dispiro[cyclopropane-1,1′-cyclohexane-4′,3″-indolin]-5″- yl)methanesulfonamide]
- IC50: 0.011 µM

SMILES: CS(=O)(=O)Nc1ccc2c(c1)C1(CCC3(CC3)CC1)CN2C(=O)c1ccc(S(=O)(=O)N2CC3(CCC3)C2)o1 [Compound 321, N-(1″-(5-((2-azaspiro[3.3]heptan-2-yl)sulfonyl)furan-2-carbonyl)dispiro[cyclopropane-1,1′-cyclohexane-4′,3″-indolin]-5″- yl)methanesulfonamide]
- IC50: 0.0063 µM

SMILES: C=C1CCC2(CC1)CN(C(=O)c1cccc(S(=O)(=O)NC(C)(C)C)c1)c1ccc(NS(C)(=O)=O)cc12 [Compound 324, N-(tert-butyl)-3-(4-methylene-5′-(methylsulfonamido)spiro[cyclohexane-1,3′-indoline]-1′-carbonyl)benzenesulfonamide]
- IC50: 0.021 µM

SMILES: CC(C)S(=O)(=O)c1cccc(C(=O)N2CC3(CCC4(CC4)CC3)c3cc(NS(C)(=O)=O)ccc32)c1 [Compound 326, N-(1″-(3-(isopropylsulfonyl)benzoyl)dispiro [cyclopropane-1,1′-cyclohexane-4′,3″- indolin]-5″-yl)methanesulfonamide]
- IC50: 0.05 µM

SMILES: CCS(=O)(=O)Nc1ccc2c(c1)C1(CCC(F)(F)CC1)CN2C(=O)c1cccc(S(=O)(=O)NC(C)(C)C)c1 [Compound 327, N-(tert-butyl)-3-(5′-(ethylsulfonamido)-4,4-difluorospiro[cyclohexane-1,3′-indoline]-1′-carbonyl)benzenesulfonamide]
- IC50: 0.044 µM

SMILES: CC1(F)CCC2(CC1)CN(C(=O)c1cccc(S(=O)(=O)NC(C)(C)C)c1)c1ccc(NS(C)(=O)=O)cc12 (centres unmarked) [Compound 329, N-(tert-butyl)-3-(4-fluoro-4-methyl-5′-(methylsulfonamido)spiro[cyclohexane-1,3′-indoline]-1′-carbonyl)benzenesulfonamide]
- IC50: 0.072 µM

SMILES: CS(=O)(=O)Nc1ccc2c(c1)C1(CCC3(CC3)CC1)CN2C(=O)c1csc(S(=O)(=O)C2CCCC2)c1 [Compound 330, N-(1″-(5-(cyclopentylsulfonyl)thiophene-3-carbonyl)dispiro[cyclopropane-1,1′-cyclohexane-4′,3″-indolin]-5″- yl)methanesulfonamide]
- IC50: 0.012 µM

SMILES: CC(O)(c1cccc(C(=O)N2CC3(CCC4(CC4)CC3)c3cc(NS(C)(=O)=O)ccc32)c1)C1CCCC1 (centres unmarked) [Compound 331, N-(1″-(3-(1-cyclopentyl-1-hydroxyethyl)benzoyl)dispiro[cyclopropane-1,1′-cyclohexane-4′,3″-indolin]-5″-yl)methanesulfonamide]
- IC50: 0.035 µM

SMILES: CC(O)c1ccc2c(c1)C1(CCC3(CC3)CC1)CN2C(=O)c1cccc(S(=O)(=O)NC(C)(C)C)c1 (centres unmarked) [Compound 332, N-(tert-butyl)-3-(5″-(1-hydroxyethyl)dispiro[cyclopropane-1,1′-cyclohexane-4′,3″-indoline]-1″-carbonyl)benzenesulfonamide]
- IC50: 0.15 µM

SMILES: CS(=O)(=O)Nc1ccc2c(c1)C1(CCC3(CC3)CC1)CN2C(=O)c1cccc(S(=O)(=O)CC2CCC2)c1 [Compound 335, N-(1″-(3-((cyclobutylmethyl)sulfonyl)benzoyl)dispiro[cyclopropane-1,1′-cyclohexane-4′,3″-indolin]-5″-yl)methanesulfonamide]
- IC50: 0.0093 µM

SMILES: CS(=O)(=O)Nc1ccc2c(c1)[C@]1(CC[C@@H](C(F)F)CC1)CN2C(=O)c1cccc(S(=O)(=O)NC23CC(C2)C3)c1 [Compound 336a]
- IC50: 0.0085 µM
